According to PMC7494974, “Olfactory Reception of Host Alarm Pheromone Component by the Odorant-Binding Proteins in the Samurai Wasp, Trissolcus japonicus (Hymenoptera: Scelionidae)” (Frontiers in Physiology, 2020):

Legend:
Format in all cases: binding
TjapOBP3 [1] = biological target: T1, TjapOBP3 (Trissolcus japonicus, UniProt A0A7G6J4J9); assay: fluorescence titration, Scatchard; details: 50 mM Tris-HCl pH 7.4; excitation 337 nm; fluorescent probe
T1 construct: gene OBP3; mature, signal peptide removed; E. coli BL21; His-tag cleaved; ~15 kDa on SDS-PAGE; classical OBP; by primers starts KLSVPQLK and ends CWYHKNPEMYIFP
T1 sequence (A0A7G6J4J9 22-142): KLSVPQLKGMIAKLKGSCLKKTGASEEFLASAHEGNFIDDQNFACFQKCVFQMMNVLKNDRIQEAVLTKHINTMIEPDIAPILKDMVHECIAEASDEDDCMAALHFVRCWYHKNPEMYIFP

TjapOBP2 [2] = biological target: T2, TjapOBP2 (Trissolcus japonicus, UniProt A0A7G6J4J8); assay: fluorescence titration, Scatchard; details: 50 mM Tris-HCl pH 7.4; excitation 337 nm; fluorescent probe
T2 construct: gene OBP2; mature, signal peptide removed; E. coli BL21; His-tag cleaved; ~15 kDa on SDS-PAGE; classical OBP; by primers starts KRPDFIDDDM and ends QCIINNCPEMWFIV
T2 sequence (A0A7G6J4J8 23-142): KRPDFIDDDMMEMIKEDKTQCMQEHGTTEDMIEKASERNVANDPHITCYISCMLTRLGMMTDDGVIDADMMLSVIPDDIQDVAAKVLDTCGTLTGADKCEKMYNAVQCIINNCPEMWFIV

TjapOBP3 [3] = biological target: T1, TjapOBP3; assay: competitive fluorescence displacement of 1-NPN; details: 50 mM Tris-HCl pH 7.4; excitation 337 nm; competitive with 1-NPN
TjapOBP2 [4] = biological target: T2, TjapOBP2; assay: competitive fluorescence displacement of 1-NPN

IC50 (TjapOBP2 [4])	Structure (SMILES)	K1-NPN (TjapOBP3 [1])	K1-NPN (TjapOBP2 [2])	competitive fluorescence displacement of 1-NPN (TjapOBP3 [3])
	c1ccc(Nc2cccc3ccccc23)cc1 [1-NPN]	The fluorescent probe 1-NPN was used to bind the selected OBPs	The fluorescent probe 1-NPN was used to bind the selected OBPs	
7.92 ± 1.03 µM	CCCCCCC/C=C/C=O [(E)-2-decenal]			TjapOBP1 and TjapOBP3 had a weak ability to bind (E)-2-decenal
